{"source": "patent US9695155B2", "about": "“Herbicidal substituted pyrimidinyloxy benzene compounds” (E. I. DU PONT DE NEMOURS AND COMPANY, priority 2013, dated 2017)", "assay_in_all_cases": "Test C preemergence", "key": {"morningglory": {"system": "morningglory", "assay_type": "in vivo, Ipomoea coccinea", "conditions": "Ipomoea, pre-emergence", "method_in_brief": "(§1)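 Plants were kept under greenhouse conditions for 13–15 days following spray. Pre-emergent application went to soil (loam–sand), post-emergent to foliage at 1–4 leaves. Evaluation: visual, percent control against untreated checks.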"}, "giant foxtail": {"system": "giant foxtail", "assay_type": "in vivo, Setaria faberii", "conditions": "Setaria faberi, pre-emergence", "method_in_brief": "as §1"}, "pigweed": {"system": "pigweed", "assay_type": "in vivo, Amaranthus retroflexus", "conditions": "Amaranthus retroflexus, pre-emergence", "method_in_brief": "as §1"}, "blackgrass": {"system": "blackgrass", "assay_type": "in vivo, Alopecurus myosuroides", "conditions": "Alopecurus myosuroides, pre-emergence", "method_in_brief": "as §1"}, "ragweed": {"system": "ragweed", "assay_type": "in vivo, Ambrosia elatior", "conditions": "Ambrosia artemisiifolia, pre-emergence", "method_in_brief": "as §1"}, "barnyardgrass": {"system": "barnyardgrass", "assay_type": "in vivo, Echinochloa crus-galli", "conditions": "Echinochloa crus-galli, pre-emergence", "method_in_brief": "as §1"}, "soybean": {"system": "soybean", "assay_type": "in vivo, Glycine max", "conditions": "Glycine max, pre-emergence", "method_in_brief": "as §1"}, "oilseed rape": {"system": "oilseed rape", "assay_type": "in vivo, Brassica napus", "conditions": "Brassica napus, pre-emergence", "method_in_brief": "as §1"}, "Italian ryegrass": {"system": "Italian ryegrass", "assay_type": "in vivo, Lolium multiflorum", "conditions": "Lolium multiflorum, pre-emergence", "method_in_brief": "as §1"}, "corn": {"system": "corn", "assay_type": "in vivo, Zea mays", "conditions": "Zea mays, pre-emergence", "method_in_brief": "as §1"}, "large (Lg) crabgrass": {"system": "large (Lg) crabgrass", "assay_type": "in vivo, Digitaria sanguinalis", "conditions": "Digitaria sanguinalis, pre-emergence", "method_in_brief": "as §1"}, "velvetleaf": {"system": "velvetleaf", "assay_type": "in vivo, Abutilon theophrasti", "conditions": "Abutilon theophrasti, pre-emergence", "method_in_brief": "as §1"}, "yellow nutsedge": {"system": "yellow nutsedge", "assay_type": "in vivo, Cyperus esculentus", "conditions": "Cyperus, pre-emergence", "method_in_brief": "as §1"}, "lambsquarters": {"system": "lambsquarters", "assay_type": "in vivo, Chenopodium album", "conditions": "Chenopodium album, pre-emergence", "method_in_brief": "as §1"}}, "data": [{"smiles": "N#Cc1cccc(Oc2ncc(Cl)cn2)c1-n1cc(OCC(F)(F)F)cn1", "note": "[Compound 274, 3-[(5-chloro-2-pyrimidinyl)oxy]-2-[4-(2,2,2-trifluoroethoxy)-1H-pyrazol-1-yl]benzonitrile]", "values": [{"measurement": "pest or weed control at 16 g/ha", "setting": "morningglory; 16 g ai/ha, preemergence, scale 0 to 100 (0 no effect, 100 complete control), read-out: Morningglory plant response rating", "result": 35, "unit": "%"}, {"measurement": "pest or weed control at 125 g/ha", "setting": "morningglory; 125 g ai/ha, preemergence, scale 0 (no effect) to 100 (complete control), read-out: Morningglory plant response rating", "result": 100, "unit": "%"}, {"measurement": "pest or weed control at 62 g/ha", "setting": "morningglory; Preemergence, 62 g ai/ha, scale 0 to 100, 0 no effect, 100 complete control, read-out: Plant response rating, Morningglory", "result": 100, "unit": "%"}, {"measurement": "pest or weed control at 16 g/ha", "setting": "giant foxtail; 16 g ai/ha, preemergence, scale 0 to 100 (0 no effect, 100 complete control), read-out: Foxtail, Giant plant response rating", "result": 98, "unit": "%"}, {"measurement": "pest or weed control at 125 g/ha", "setting": "giant foxtail; 125 g ai/ha, preemergence, scale 0 (no effect) to 100 (complete control), read-out: Foxtail, Giant plant response rating", "result": 100, "unit": "%"}, {"measurement": "pest or weed control at 62 g/ha", "setting": "giant foxtail; Preemergence, 62 g ai/ha, scale 0 to 100, 0 no effect, 100 complete control, read-out: Plant response rating, Foxtail, Giant", "result": 100, "unit": "%"}, {"measurement": "pest or weed control at 16 g/ha", "setting": "pigweed; 16 g ai/ha, preemergence, scale 0 to 100 (0 no effect, 100 complete control), read-out: Pigweed plant response rating", "result": 100, "unit": "%"}, {"measurement": "pest or weed control at 125 g/ha", "setting": "pigweed; 125 g ai/ha, preemergence, scale 0 (no effect) to 100 (complete control), read-out: Pigweed plant response rating", "result": 100, "unit": "%"}, {"measurement": "pest or weed control at 62 g/ha", "setting": "pigweed; Preemergence, 62 g ai/ha, scale 0 to 100, 0 no effect, 100 complete control, read-out: Plant response rating, Pigweed", "result": 100, "unit": "%"}, {"measurement": "pest or weed control at 16 g/ha", "setting": "blackgrass; 16 g ai/ha, preemergence, scale 0 to 100 (0 no effect, 100 complete control), read-out: Blackgrass plant response rating", "result": 50, "unit": "%"}, {"measurement": "pest or weed control at 125 g/ha", "setting": "blackgrass; 125 g ai/ha, preemergence, scale 0 (no effect) to 100 (complete control), read-out: Blackgrass plant response rating", "result": 90, "unit": "%"}, {"measurement": "pest or weed control at 62 g/ha", "setting": "blackgrass; Preemergence, 62 g ai/ha, scale 0 to 100, 0 no effect, 100 complete control, read-out: Plant response rating, Blackgrass", "result": 90, "unit": "%"}, {"measurement": "pest or weed control at 16 g/ha", "setting": "ragweed; 16 g ai/ha, preemergence, scale 0 to 100 (0 no effect, 100 complete control), read-out: Ragweed plant response rating", "result": 10, "unit": "%"}, {"measurement": "pest or weed control at 125 g/ha", "setting": "ragweed; 125 g ai/ha, preemergence, scale 0 (no effect) to 100 (complete control), read-out: Ragweed plant response rating", "result": 75, "unit": "%"}, {"measurement": "pest or weed control at 62 g/ha", "setting": "ragweed; Preemergence, 62 g ai/ha, scale 0 to 100, 0 no effect, 100 complete control, read-out: Plant response rating, Ragweed", "result": 35, "unit": "%"}, {"measurement": "pest or weed control at 16 g/ha", "setting": "barnyardgrass; 16 g ai/ha, preemergence, scale 0 to 100 (0 no effect, 100 complete control), read-out: Barnyardgrass plant response rating", "result": 90, "unit": "%"}, {"measurement": "pest or weed control at 125 g/ha", "setting": "barnyardgrass; 125 g ai/ha, preemergence, scale 0 (no effect) to 100 (complete control), read-out: Barnyardgrass plant response rating", "result": 100, "unit": "%"}, {"measurement": "pest or weed control at 62 g/ha", "setting": "barnyardgrass; Preemergence, 62 g ai/ha, scale 0 to 100, 0 no effect, 100 complete control, read-out: Plant response rating, Barnyardgrass", "result": 100, "unit": "%"}, {"measurement": "plant injury at 16 g/ha", "setting": "soybean; 16 g ai/ha, preemergence, scale 0 to 100 (0 no effect, 100 complete control), read-out: Soybean plant response rating", "result": 35, "unit": "%"}, {"measurement": "plant injury at 125 g/ha", "setting": "soybean; 125 g ai/ha, preemergence, scale 0 (no effect) to 100 (complete control), read-out: Soybean plant response rating", "result": 98, "unit": "%"}, {"measurement": "plant injury at 62 g/ha", "setting": "soybean; Preemergence, 62 g ai/ha, scale 0 to 100, 0 no effect, 100 complete control, read-out: Plant response rating, Soybean", "result": 95, "unit": "%"}, {"measurement": "plant injury at 16 g/ha", "setting": "oilseed rape; 16 g ai/ha, preemergence, scale 0 to 100 (0 no effect, 100 complete control), read-out: Oilseed Rape plant response rating", "result": 80, "unit": "%"}, {"measurement": "plant injury at 125 g/ha", "setting": "oilseed rape; 125 g ai/ha, preemergence, scale 0 (no effect) to 100 (complete control), read-out: Oilseed Rape plant response rating", "result": 95, "unit": "%"}, {"measurement": "plant injury at 62 g/ha", "setting": "oilseed rape; Preemergence, 62 g ai/ha, scale 0 to 100, 0 no effect, 100 complete control, read-out: Plant response rating, Oilseed Rape", "result": 95, "unit": "%"}, {"measurement": "pest or weed control at 16 g/ha", "setting": "Italian ryegrass; 16 g ai/ha, preemergence, scale 0 to 100 (0 no effect, 100 complete control), read-out: Ryegrass, Italian plant response rating", "result": 25, "unit": "%"}, {"measurement": "pest or weed control at 125 g/ha", "setting": "Italian ryegrass; 125 g ai/ha, preemergence, scale 0 (no effect) to 100 (complete control), read-out: Ryegrass, Italian plant response rating", "result": 90, "unit": "%"}, {"measurement": "pest or weed control at 62 g/ha", "setting": "Italian ryegrass; Preemergence, 62 g ai/ha, scale 0 to 100, 0 no effect, 100 complete control, read-out: Plant response rating, Ryegrass, Italian", "result": 90, "unit": "%"}, {"measurement": "plant injury at 16 g/ha", "setting": "corn; 16 g ai/ha, preemergence, scale 0 to 100 (0 no effect, 100 complete control), read-out: Corn plant response rating", "result": 5, "unit": "%"}, {"measurement": "plant injury at 125 g/ha", "setting": "corn; 125 g ai/ha, preemergence, scale 0 (no effect) to 100 (complete control), read-out: Corn plant response rating", "result": 80, "unit": "%"}, {"measurement": "Corn plant response rating (crop injury, 0 = no effect, 100 = complete kill) at 62 g/ha", "setting": "corn; Preemergence, 62 g ai/ha, scale 0 to 100, 0 no effect, 100 complete control", "result": 85, "unit": "%"}, {"measurement": "pest or weed control at 16 g/ha", "setting": "large (Lg) crabgrass; 16 g ai/ha, preemergence, scale 0 to 100 (0 no effect, 100 complete control), read-out: Crabgrass, Large plant response rating", "result": 100, "unit": "%"}, {"measurement": "pest or weed control at 125 g/ha", "setting": "large (Lg) crabgrass; 125 g ai/ha, preemergence, scale 0 (no effect) to 100 (complete control), read-out: Crabgrass, Large plant response rating", "result": 100, "unit": "%"}, {"measurement": "pest or weed control at 62 g/ha", "setting": "large (Lg) crabgrass; Preemergence, 62 g ai/ha, scale 0 to 100, 0 no effect, 100 complete control, read-out: Plant response rating, Crabgrass, Large", "result": 100, "unit": "%"}, {"measurement": "pest or weed control at 16 g/ha", "setting": "velvetleaf; 16 g ai/ha, preemergence, scale 0 to 100 (0 no effect, 100 complete control), read-out: Velvetleaf plant response rating", "result": 80, "unit": "%"}, {"measurement": "pest or weed control at 125 g/ha", "setting": "velvetleaf; 125 g ai/ha, preemergence, scale 0 (no effect) to 100 (complete control), read-out: Velvetleaf plant response rating", "result": 100, "unit": "%"}, {"measurement": "pest or weed control at 62 g/ha", "setting": "velvetleaf; Preemergence, 62 g ai/ha, scale 0 to 100, 0 no effect, 100 complete control, read-out: Plant response rating, Velvetleaf", "result": 100, "unit": "%"}, {"measurement": "pest or weed control at 16 g/ha", "setting": "yellow nutsedge; 16 g ai/ha, preemergence, scale 0 to 100 (0 no effect, 100 complete control), read-out: Nutsedge, Yellow plant response rating", "result": 20, "unit": "%"}, {"measurement": "pest or weed control at 125 g/ha", "setting": "yellow nutsedge; 125 g ai/ha, preemergence, scale 0 (no effect) to 100 (complete control), read-out: Nutsedge, Yellow plant response rating", "result": 95, "unit": "%"}, {"measurement": "pest or weed control at 62 g/ha", "setting": "yellow nutsedge; Preemergence, 62 g ai/ha, scale 0 to 100, 0 no effect, 100 complete control, read-out: Plant response rating, Nutsedge, Yellow", "result": 85, "unit": "%"}, {"measurement": "pest or weed control at 16 g/ha", "setting": "lambsquarters; 16 g ai/ha, preemergence, scale 0 to 100 (0 no effect, 100 complete control), read-out: Lambsquarters plant response rating", "result": 100, "unit": "%"}, {"measurement": "pest or weed control at 125 g/ha", "setting": "lambsquarters; 125 g ai/ha, preemergence, scale 0 (no effect) to 100 (complete control), read-out: Lambsquarters plant response rating", "result": 98, "unit": "%"}, {"measurement": "pest or weed control at 62 g/ha", "setting": "lambsquarters; Preemergence, 62 g ai/ha, scale 0 to 100, 0 no effect, 100 complete control, read-out: Plant response rating, Lambsquarters", "result": 100, "unit": "%"}]}]}
